Experimental data from patent publication US20260001928A1 (CORTERIA PHARMACEUTICALS, priority 2022, published 2026).
*1 amine or outer side, *2 acyl side, *3 side chain or, on linkers, in order; H or OH if unused. Where a SMILES comes first, the peptide text is derived from it. Side-chain parts run from the residue outwards. [ ]: non-standard residue; d: D form. The star is where a group is joined. C18 diacid = O=C(O)CCCCCCCCCCCCCCCCC(=O)*; γGlu = O=C(O)[C@H](CCC(=O)[*:2])N[*:1]; NMeI = CC[C@H](C)[C@H](NC)C(=O)O; Api = NC1(C(=O)O)CCNCC1; Abu = CC[C@H](N)C(=O)O; Dap = NC[C@H](N)C(=O)O; AEEA = NCCOCCOCC(=O)O

Key:
human CRF2a receptor = target: T1, human CRF2a receptor (Homo sapiens, UniProt Q13324); assay: Activity at human CRF2a receptor, cAMP functional assay in TeloHEAC cells; format: cell-based; details: TeloHEAC cells stably expressing human CRF2a receptor, relative to urocortin 2 (100 nM = 100%)
T1 construct: expressed in transfected cells; host or cells: TeloHEAC cells
T1 sequence (Q13324 1-411): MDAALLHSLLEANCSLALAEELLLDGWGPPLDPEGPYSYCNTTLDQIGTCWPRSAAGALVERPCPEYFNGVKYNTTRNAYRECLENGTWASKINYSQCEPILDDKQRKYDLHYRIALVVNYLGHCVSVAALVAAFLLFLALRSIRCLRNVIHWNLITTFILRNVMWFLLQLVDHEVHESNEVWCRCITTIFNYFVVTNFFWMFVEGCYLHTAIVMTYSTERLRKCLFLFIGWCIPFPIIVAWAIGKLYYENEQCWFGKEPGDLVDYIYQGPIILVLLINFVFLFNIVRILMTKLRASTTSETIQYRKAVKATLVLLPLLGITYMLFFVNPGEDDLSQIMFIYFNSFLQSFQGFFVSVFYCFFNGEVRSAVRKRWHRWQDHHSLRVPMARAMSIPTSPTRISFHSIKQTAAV
Outline: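 TeloHEAC cells stably expressing human CRF2a (10000 cells/well, suspended in HBSS/20 mM HEPES with 2 mM IBMX) were exposed to compounds for 30 min at 37 °C. cAMP was read as the 665/620 nm fluorescence ratio after 1 h at room temperature. EC50 was derived relative to 100 nM urocortin 2, set as 100%.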

CFR1R receptor = target: T2, CFR1R receptor (Homo sapiens, UniProt P34998); assay: Activity at anti-target CFR1R receptor, cAMP assay in CRF1R-overexpression CHO-K1 cells; format: cell-based; details: 100% = Sauvagine at 100 nM; for EC50: cAMP
T2 construct: host or cells: CHO-K1 (clone 2)
T2 sequence (P34998 24-415): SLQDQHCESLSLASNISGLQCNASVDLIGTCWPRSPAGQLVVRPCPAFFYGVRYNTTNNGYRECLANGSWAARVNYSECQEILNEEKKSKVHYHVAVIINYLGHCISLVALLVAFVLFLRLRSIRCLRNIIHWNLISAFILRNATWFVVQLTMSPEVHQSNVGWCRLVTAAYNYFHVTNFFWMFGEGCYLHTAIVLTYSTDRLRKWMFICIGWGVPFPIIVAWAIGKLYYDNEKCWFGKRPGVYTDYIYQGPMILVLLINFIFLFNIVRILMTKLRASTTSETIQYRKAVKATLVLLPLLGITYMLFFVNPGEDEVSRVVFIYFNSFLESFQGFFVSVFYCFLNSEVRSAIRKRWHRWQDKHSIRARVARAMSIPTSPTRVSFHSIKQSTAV
Outline: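 Uses frozen stocks of CHO-K1 clone 2 cells overexpressing human CRF1R, plated at 4000 cells/well final, with cAMP measured by the same protocol as the TeloHAEC line. Full-activation control: 100 nM Sauvagine.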

| EC50 (human CRF2a receptor) [nM] | Emax (% I) (CFR1R receptor) | EC50 (CFR1R receptor) [nM] | Structure (SMILES) |
| --- | --- | --- | --- |
| 0.05 | 13 | > 250 | CC[C@H](NC(=O)[C@H](CC(N)=O)NC(=O)[C@@H](NC(=O)[C@H](CCC(=O)O)NC(=O)[C@H](C)NC(=O)[C@H](CCC(N)=O)NC(=O)[C@H](CCC(=O)O)NC(=O)[C@H](CCCNC(=N)N)NC(=O)[C@H](CCC(N)=O)NC(=O)[C@H](CCCCN)NC(=O)[C@H](CCCCN)NC(=O)[C@H](CCC(N)=O)NC(=O)[C@H](CCCCN)NC(=O)[C@H](CCC(=O)O)NC(=O)[C@H](CCC(N)=O)NC(=O)[C@H](CCC(=O)O)NC(=O)[C@H](CC(C)C)NC(=O)[C@H](CC(C)C)NC(=O)[C@@H](NC(=O)[C@H](CCCCN)NC(=O)[C@H](CCCCNC(=O)CC[C@H](NC(=O)CCCCCCCCCCCCCCCCC(=O)O)C(=O)O)NC(=O)[C@H](CC(C)C)NC(=O)[C@H](CCCCN)NC(=O)[C@@H](NC(=O)[C@@H]1CCCN1C(=O)[C@H](NC(=O)[C@H](CC(=O)O)NC(=O)[C@H](CC(C)C)NC(=O)[C@H](CO)NC(=O)[C@H](CC(C)C)NC(=O)[C@@H](NC(=O)[C@@H](NC)[C@@H](C)CC)C(C)C)C(C)C)[C@@H](C)CC)[C@@H](C)CC)[C@@H](C)O)C(=O)N[C@@H](CCC(N)=O)C(=O)N[C@H](C(=O)N[C@@H](CC(C)C)C(=O)N[C@@H](C)C(=O)N[C@@H](CCC(N)=O)C(=O)N[C@H](C(N)=O)C(C)C)[C@@H](C)CC [compound 139] (H-[NMeI]VLSLD[dV]PIKLK([γGlu-C18 diacid])KILLEQEKQKKQREQAETN[Abu]QILAQV-NH2) |
| 0.17 | 14 | > 250 | CC[C@H](C)[C@H](NC)C(=O)N[C@H](C(=O)N[C@@H](CC(C)C)C(=O)N[C@@H](CO)C(=O)N[C@@H](CC(C)C)C(=O)N[C@@H](CC(=O)O)C(=O)N[C@@H](C(=O)N1CCC[C@H]1C(=O)N[C@H](C(=O)N[C@@H](CCCCN)C(=O)N[C@@H](CC(C)C)C(=O)N[C@@H](CCCCNC(=O)CC[C@H](NC(=O)CCCCCCCCCCCCCCCCC(=O)O)C(=O)O)C(=O)N[C@@H](CCCCN)C(=O)N[C@H](C(=O)N[C@@H](CC(C)C)C(=O)N[C@@H](CC(C)C)C(=O)N[C@@H](CCC(=O)O)C(=O)N[C@@H](CCC(N)=O)C(=O)N[C@@H](CCC(=O)O)C(=O)N[C@@H](CCCCN)C(=O)N[C@@H](CCC(N)=O)C(=O)N[C@@H](CCCCN)C(=O)N[C@@H](CCCCN)C(=O)N[C@@H](CCC(N)=O)C(=O)N[C@@H](CCCNC(=N)N)C(=O)N[C@@H](CCC(=O)O)C(=O)N[C@@H](CCC(N)=O)C(=O)N[C@@H](C)C(=O)N[C@@H](CCC(=O)O)C(=O)N[C@H](C(=O)N[C@@H](CC(N)=O)C(=O)N[C@@H](CN)C(=O)N[C@@H](CCC(N)=O)C(=O)N[C@H](C(=O)N[C@@H](CC(C)C)C(=O)N[C@@H](C)C(=O)N[C@@H](CCC(N)=O)C(=O)N[C@H](C(N)=O)C(C)C)[C@@H](C)CC)[C@@H](C)O)[C@@H](C)CC)[C@@H](C)CC)C(C)C)C(C)C [compound 140] (H-[NMeI]VLSLD[dV]PIKLK([γGlu-C18 diacid])KILLEQEKQKKQREQAETN[Dap]QILAQV-NH2) |
| 0.16 | 32 | > 250 | CC[C@H](C)[C@H](NC)C(=O)N[C@H](C(=O)N[C@@H](CC(C)C)C(=O)N[C@@H](CO)C(=O)N[C@@H](CC(C)C)C(=O)N[C@@H](CC(=O)O)C(=O)N[C@@H](C(=O)N1CCC[C@H]1C(=O)N[C@H](C(=O)N[C@@H](CCCCN)C(=O)N[C@@H](CC(C)C)C(=O)N[C@@H](CCCCNC(=O)CC[C@H](NC(=O)CCCCCCCCCCCCCCCCC(=O)O)C(=O)O)C(=O)N[C@@H](CCCCN)C(=O)N[C@H](C(=O)N[C@@H](CC(C)C)C(=O)N[C@@H](CC(C)C)C(=O)N[C@@H](CCC(=O)O)C(=O)N[C@@H](CCC(N)=O)C(=O)N[C@@H](CCC(=O)O)C(=O)N[C@@H](CCCCN)C(=O)N[C@@H](CCC(N)=O)C(=O)N[C@@H](CCCCN)C(=O)N[C@@H](CCCCN)C(=O)N[C@@H](CCC(N)=O)C(=O)N[C@@H](CCCNC(=N)N)C(=O)N[C@@H](CCC(=O)O)C(=O)N[C@@H](CCC(N)=O)C(=O)N[C@@H](C)C(=O)N[C@@H](CCC(=O)O)C(=O)N[C@H](C(=O)N[C@@H](CC(N)=O)C(=O)NC1(C(=O)N[C@@H](CCC(N)=O)C(=O)N[C@H](C(=O)N[C@@H](CC(C)C)C(=O)N[C@@H](C)C(=O)N[C@@H](CCC(N)=O)C(=O)N[C@H](C(N)=O)C(C)C)[C@@H](C)CC)CCNCC1)[C@@H](C)O)[C@@H](C)CC)[C@@H](C)CC)C(C)C)C(C)C [compound 141] (H-[NMeI]VLSLD[dV]PIKLK([γGlu-C18 diacid])KILLEQEKQKKQREQAETN[Api]QILAQV-NH2) |
| 0.07 | 3 | > 250 | CC[C@H](C)[C@H](NC)C(=O)N[C@H](C(=O)N[C@@H](CC(C)C)C(=O)N[C@@H](CO)C(=O)N[C@@H](CC(C)C)C(=O)N[C@@H](CC(=O)O)C(=O)N[C@@H](C(=O)N1CCC[C@H]1C(=O)N[C@H](C(=O)N[C@@H](CCCCN)C(=O)N[C@@H](CC(C)C)C(=O)N[C@@H](CCCCNC(=O)CC[C@H](NC(=O)CCCCCCCCCCCCCCCCC(=O)O)C(=O)O)C(=O)N[C@@H](CCCCN)C(=O)N[C@H](C(=O)N[C@@H](CC(C)C)C(=O)N[C@@H](CC(C)C)C(=O)N[C@@H](CCC(=O)O)C(=O)N[C@@H](CCC(N)=O)C(=O)N[C@@H](CCC(=O)O)C(=O)N[C@@H](CCCCN)C(=O)N[C@@H](CCC(N)=O)C(=O)N[C@@H](CCCCN)C(=O)N[C@@H](CCCCN)C(=O)N[C@@H](CCC(N)=O)C(=O)N[C@@H](CCCNC(=N)N)C(=O)N[C@@H](CCC(=O)O)C(=O)N[C@@H](CCC(N)=O)C(=O)N[C@@H](C)C(=O)N[C@@H](CCC(=O)O)C(=O)N[C@H](C(=O)N[C@@H](CC(N)=O)C(=O)N[C@@H](CCC(=O)O)C(=O)N[C@@H](CCC(N)=O)C(=O)N[C@H](C(=O)N[C@@H](CC(C)C)C(=O)N[C@@H](C)C(=O)N[C@@H](CCC(N)=O)C(=O)N[C@H](C(N)=O)C(C)C)[C@@H](C)CC)[C@@H](C)O)[C@@H](C)CC)[C@@H](C)CC)C(C)C)C(C)C [compound 142] (H-[NMeI]VLSLD[dV]PIKLK([γGlu-C18 diacid])KILLEQEKQKKQREQAETNEQILAQV-NH2) |
| 0.25 | 38 | > 250 | CC[C@H](C)[C@H](N)C(=O)N[C@H](C(=O)N[C@@H](CC(C)C)C(=O)N[C@@H](CO)C(=O)N[C@@H](CC(C)C)C(=O)N[C@@H](CC(=O)O)C(=O)N[C@@H](C(=O)N1CCC[C@H]1C(=O)N[C@H](C(=O)N[C@@H](CCCCN)C(=O)N[C@@H](CC(C)C)C(=O)N[C@@H](CCCCNC(=O)COCCOCCNC(=O)COCCOCCNC(=O)CC[C@H](NC(=O)CCCCCCCCCCCCCCCCC(=O)O)C(=O)O)C(=O)N[C@@H](CCC(N)=O)C(=O)N[C@H](C(=O)N[C@@H](CC(C)C)C(=O)N[C@@H](CC(C)C)C(=O)N[C@@H](CCCCN)C(=O)N[C@@H](CCC(N)=O)C(=O)N[C@@H](CCC(=O)O)C(=O)N[C@@H](CCCNC(=N)N)C(=O)N[C@@H](CCC(N)=O)C(=O)N[C@@H](CCCCN)C(=O)N[C@@H](CCCCN)C(=O)N[C@@H](CCC(N)=O)C(=O)N[C@@H](CCCNC(=N)N)C(=O)N[C@@H](CCC(=O)O)C(=O)N[C@@H](CCC(N)=O)C(=O)N[C@@H](C)C(=O)N[C@@H](CCC(=O)O)C(=O)N[C@@H](CCCCN)C(=O)N[C@@H](CC(N)=O)C(=O)N[C@@H](CCCCN)C(=O)N[C@@H](CCC(N)=O)C(=O)N[C@H](C(=O)N[C@@H](CC(C)C)C(=O)N[C@@H](CCC(=O)O)C(=O)N[C@@H](CCC(N)=O)C(=O)N[C@H](C(N)=O)C(C)C)[C@@H](C)CC)[C@@H](C)CC)[C@@H](C)CC)C(C)C)C(C)C [compound 150] (H-IVLSLD[dV]PIKLK([AEEA-AEEA-γGlu-C18 diacid])QILLKQERQKKQREQAEKNKQILEQV-NH2) |
